How the values were obtained:
[1] = test system: E. faecalis; assay: High throughput assay screening of prebiotics; type: cell-based, Enterococcus faecalis; set-up: key: ++: if growth and fermentation was equal to or greater than the positive control; +: if growth and fermentation was less than the positive control; +: if weak or no growth or fermentation; +^2: Bacteria demonstrated growth but no fermentation on the prebiotic; conditions: 2% w/v prebiotic in API 50 CHL media; for growth and fermentation vs positive control, Ef-3: E. faecalis KC17-3969-2B, Bladder; for growth and fermentation vs positive control, Ef-4: E. faecalis KC17-4331-3, Bladder; for growth and fermentation vs positive control, Ef-1: E. faecalis ATCC BAA-2128, Culture Collection; for growth and fermentation vs positive control, Ef-2: E. faecalis KC16-7171-3, Bladder
Protocol: (§1) Most of the prebiotic compounds were initially tested in a high throughput assay screening process, described further in the Test Methods section herein, but three prebiotics (as noted in Table 3) were tested using a plate assay screening process as described in the Test Methods section herein. The prebiotics were tested against the commensal bacterial species of Lactobacillus crispatus, Lactobacillus gasseri, and Lactobacillus jensenii and against the pathogenic bacterial species of Streptococcus anginosus and Enterococcus faecalis as shown in Table 2. The bacterial species were taken from different sources, listed as culture collection, bladder, and vagina.
(§2) The results of the assay plate screening of the prebiotic compounds of Table 1 against the bacterial species of Table 2 is documented in Table 3 with the results being described by the following legend: • ++ if growth and fermentation was equal to or greater than the positive control • + if growth and fermentation was less than the positive control • […] if weak or no growth or fermentation • NT if not tested Some codes were not tested based on the use or non-use by the bacteria, as a way to efficiently move through the assay plate screening to the competition assay, described below.
(§3) • 1. Create a 2% w/v stock of prebiotic or positive control (glucose/dextrose) to be tested in API 50 CHL media (Biomerieux, Marcy-I'Étoile, France). API 50 CHL media contains minimal amounts of carbon for growth, and a bromocresol purple as a pH indicator of fermentation. Filter sterilize media with a […]. Store at 4-6° C. until use. • 2. Add 180 μL of media containing the prebiotic to a sterile, flat bottom 96-well microtiter plate (Corning, Corning, NY). • 3. From a freezer stock subculture the bacteria twice into De Man, Rogosa and Sharpe (MRS) broth (BD Difco, Becton Dickinson, Franklin Lakes, NJ), 37° C., stationary, anaerobic, overnight. • 4. From the last subculture, plate onto an MRS agar plate (Teknova, Hollister, CA) and grow 37° C., stationary, anaerobic, overnight. • 5. Create a bacterial suspension by using a sterile tipped swab to transfer colonies of bacteria into a PBS suspension blank to a 0.5 MacFarland (S. anginosus or E. faecalis) or a 1 MacFarland (Lactobacillus species) from the MRS agar plate. • 6. Enumerate the starting culture. • 7. Inoculate the media alone and media containing the prebiotic or positive control with 20 μL of the bacterial suspension. • 8. Place the plate into a spectrophotometer (Molecular Devices, San Jose, CA) and read the plate every 20 minutes for 24-48 hours. Read wavelengths (OD 430, OD 590, and OD 660). A color change to yellow caused by a drop in pH will be read by an increase in the OD430 value and a decrease in the OD590 value and is indicative of bacterial fermentation. An increase in OD660 values is indicative of an increase in turbidity and bacterial growth.

[2] = test system: L. crispatus; assay: High throughput assay screening of prebiotics; type: cell-based, Lactobacillus crispatus; set-up: key: ++: if growth and fermentation was equal to or greater than the positive control; +: if growth and fermentation was less than the positive control; +: if weak or no growth or fermentation; +^2: Bacteria demonstrated growth but no fermentation on the prebiotic; conditions: 2% w/v prebiotic in API 50 CHL media; for growth and fermentation vs positive control, Lc-4: L. crispatus KC18-1174-1, Vagina; for growth and fermentation vs positive control, Lc-1: L. crispatus ATCC 33820, Culture Collection; for growth and fermentation vs positive control, Lc-2: L. crispatus KC16-7134-3C, Bladder; for growth and fermentation vs positive control, Lc-3: L. crispatus KC18-1173-1, Bladder
Protocol: as §1, §2, §3

[3] = test system: S. anginosus; assay: High throughput assay screening of prebiotics; type: cell-based, Streptococcus anginosus; set-up: key: ++: if growth and fermentation was equal to or greater than the positive control; +: if growth and fermentation was less than the positive control; +: if weak or no growth or fermentation; +^2: Bacteria demonstrated growth but no fermentation on the prebiotic; conditions: 2% w/v prebiotic in API 50 CHL media; for growth and fermentation vs positive control, Sa-2: S. anginosus KC18-1131-3B, Bladder; for growth and fermentation vs positive control, Sa-1: S. anginosus ATCC 33397, Culture Collection
Protocol: as §1, §2, §3

[4] = test system: L. gasseri; assay: High throughput assay screening of prebiotics; type: cell-based, Lactobacillus gasseri; set-up: key: ++: if growth and fermentation was equal to or greater than the positive control; +: if growth and fermentation was less than the positive control; +: if weak or no growth or fermentation; +^2: Bacteria demonstrated growth but no fermentation on the prebiotic; conditions: 2% w/v prebiotic in API 50 CHL media; for growth and fermentation vs positive control, Lg-1: L. gasseri KC16-7135-1, Bladder; for growth and fermentation vs positive control, Lg-2: L. gasseri KC16-7171-1, Bladder
Protocol: as §1, §2, §3

[5] = test system: commensal and pathogenic bacterial species; assay: Prebiotic screening, summary in words across species; type: cell-based; conditions: commensal (L. crispatus, L. gasseri, L. jensenii) and pathogenic (S. anginosus, E. faecalis) species
Protocol: as §1, §2, §3
• 1. An in house bacterial agar was created based on MRS agar (Kaplan and Hutkins, 2000) where the glucose is substituted for the prebiotic to be tested (either dextran MW ˜6,000, alpha-cyclodextrin, glucomannan, or pectin), bromocresol purple was included as a pH indicator. • 2. Bacteria were enumerated on each agar and color changes were recorded. Method for Competition Assay (Modified from “In Vitro Evaluation of Nutrients that Selectively Confer a Competitive Advantage to Lactobacilli” Vongsa et al, Beneficial Microbes 2016) • 1. Create 2% w/v stock of prebiotic or positive control (glucose/dextrose) as described above. • 2. From a freezer stock subculture the bacteria twice into De Man, Rogosa and Sharpe (MRS) broth (BD Difco, Becton Dickinson, Franklin Lakes, NJ), 37° C., stationary, anaerobic, overnight. • 3. From the last subculture, plate onto an MRS agar plate for L. crispatus KC18-1173-1 or blood agar for S. anginosus KC18-1131-3B, grow 37° C., stationary, anaerobic, overnight. • 4. […]

`OC[C@H]1O[C@@H](O[C@@H]2[C@@H](CO)OC(O)(CO)[C@H]2O)[C@H](O)[C@@H](O)[C@H]1O` (mixture of isomers) [Lactulose] was tested. Which “growth and fermentation vs positive control, Ef-3” value [1] did it give?
Its value is “+^2”.

What about the “growth and fermentation vs positive control, Ef-4” value [1] of the same compound?
Its value is “+^2”.

What about the “growth and fermentation vs positive control, Lc-4” value [2] of the same compound?
The value was “++”.

What about the “growth and fermentation vs positive control, Sa-2” value [3] of the same compound?
Its value is “++”.

What about the “growth and fermentation vs positive control, Lg-4” value ([4]; L. gasseri KC18-1142-2, Bladder) of the same compound?
The value was “+”.

`O=C(O)CC(O)C(=O)O` (racemic) [DL-Malic acid, DL-Malic acid (Malate)] was tested. Which “overall outcome of the screening of Table 3, in words” value (from here on “overall outcome”) [5] did it give?
Its value is “not able to provide growth for most, if not all, commensal and pathogenic bacterial species”.

With `OC[C@H]1O[C@@H](O)[C@H](O)[C@@H](O)[C@@H]1O` [Beta-D-glucose, Beta-D-Glucose] as the compound, how does the “growth and fermentation vs positive control, Ef-1” value [1] read?
The value was “++”.

And the “growth and fermentation vs positive control, Ef-2” value [1]?
Its value is “++”.

What about the “growth and fermentation vs positive control, Ef-3” value [1] of the same compound?
The value was “++”.

And the “growth and fermentation vs positive control, Ef-4” value [1]?
The value was “++”.

And the “growth and fermentation vs positive control, Lc-1” value [2]?
Its value is “++”.

And the “growth and fermentation vs positive control, Lc-2” value [2]?
Its value is “++”.

What about the “growth and fermentation vs positive control, Lc-3” value [2] of the same compound?
Its value is “++”.

What about the “growth and fermentation vs positive control, Lc-4” value [2] of the same compound?
The value was “++”.

What about the “growth and fermentation vs positive control, Sa-1” value [3] of the same compound?
The value was “++”.

What about the “growth and fermentation vs positive control, Sa-2” value [3] of the same compound?
The value was “++”.

What about the “growth and fermentation vs positive control, Lg-1” value [4] of the same compound?
Its value is “++”.

What about the “growth and fermentation vs positive control, Lg-2” value [4] of the same compound?
Its value is “++”.

And the “overall outcome” value [5]?
The value was “able to provide growth on the commensal bacterial species, but also provided growth on the pathogenic bacterial species”.

What does the source list for `CC(=O)N[C@H]1C(O)O[C@H](CO)[C@@H](O)[C@@H]1O` (stereo partly shown) [N-Acetylglucosamine]?
growth and fermentation vs positive control, Ef-1 [1]: ++; growth and fermentation vs positive control, Ef-2 [1]: ++; growth and fermentation vs positive control, Ef-3 [1]: ++; growth and fermentation vs positive control, Ef-4 [1]: ++; growth and fermentation vs positive control, Lc-1 [2]: ++; growth and fermentation vs positive control, Lc-2 [2]: +; growth and fermentation vs positive control, Lc-3 [2]: ++; growth and fermentation vs positive control, Lc-4 [2]: +; growth and fermentation vs positive control, Sa-1 [3]: ++; growth and fermentation vs positive control, Sa-2 [3]: ++; growth and fermentation vs positive control, Lg-1 [4]: ++; growth and fermentation vs positive control, Lg-2 [4]: ++; overall outcome of the screening of Table 3, in words [5]: able to provide growth on the commensal bacterial species, but also provided growth on the pathogenic bacterial species

For `O=C(CO)[C@@H](O)[C@@H](O)[C@H](O)CO` [Tagatose], which “growth and fermentation vs positive control, Ef-1” value [1] is on record?
The value was “++”.

What about the “growth and fermentation vs positive control, Ef-2” value [1] of the same compound?
Its value is “++”.

And the “growth and fermentation vs positive control, Ef-3” value [1]?
Its value is “++”.

What about the “growth and fermentation vs positive control, Ef-4” value [1] of the same compound?
The value was “++”.

For `OC[C@@H](O)[C@H](O)[C@@H](O)CO` [Xylitol], which “overall outcome” value [5] is on record?
Its value is “not able to provide growth for most, if not all, commensal and pathogenic bacterial species”.

Reference: patent publication US20230293560A1, “METHOD FOR MODULATING THE BLADDER MICROBIOME TO IMPROVE BLADDER HEALTH” (Kimberly-Clark Worldwide, Inc., priority 2020, published 2023)
